From US20240417410A1, “TRICYCLIC COMPOUNDS FOR THE TREATMENT OF CANCER” (Hoffmann-La Roche Inc., priority 2023, published 2024) come the findings set out here.

The target of one data set is WT HRAS-BRAF complex (Homo sapiens (Human), UniProt P01112+P62937). Kind of data set: WT HRAS-BRAF with CYPA interaction assay (TR-FRET). Type of data set: biochemical. The conditions noted are these: WT HRAS. The procedure:
(§1) In this example, TR-FRET was used to measure the compound or compound-CYPA dependent disruption of the KRAS G12V-BRAF complex to assess inhibition efficacy. The IC50 ratio between WT KRAS/HRAS/NRAS and KRAS G12V mutant was calculated as selective index, which indicated tolerability and safety profile. Disruption of WT KRAS/HRAS/NRAS-BRAF complex by compounds was detected respectively. In assay buffer containing 25 mM HEPES (PH-7.4,4-(2-hydroxyethyl)-1-piperazineethanesulfonic acid, Thermo, 15630080), 0.002% Tween20, 0.1% BSA, 100 mM NaCl, 5 mM MgCl2, 10 μM GMPPNP (Guanosine 5′-[β,γ-imido]triphosphate trisodium salt hydrate, Sigma, G0635), tagless CYPA and GMPPNP loaded 6His-RAS proteins, and GST-BRAF^RBD were mixed in a well of a 384-well assay plate at final concentrations of 50 nM, 6.25 nM and 1 nM, respectively. Compound was present in plate wells as a 16-point 3-fold dilution series starting at a final concentration of 10 μM and incubated for 3 hours. A mixture of MAb Anti-6His-XL665 (Cisbio, 61HISXLB) and Mab anti-GST-TB cryptate (Cisbio, 61GSTTLB) was then added at a final concentration of 6.67 nM and 0.21 nM, respectively, and the plate was incubated for an additional 1.5 hours. TR-FRET signal was read on a PHERstar FSX microplate reader (Ex320 nm, Em 665/615 nm). Compounds that facilitate disruption of the RAS-BRAF complex were identified as those eliciting a decrease in the TR-FRET ratio relative to DMSO control wells.

A further data set has as its target WT KRAS-BRAF complex (Homo sapiens (Human), UniProt P01116+P62937). Kind of data set: WT KRAS-BRAF with CYPA interaction assay (TR-FRET). Type of data set: biochemical. The conditions noted are these: WT KRAS. The procedure:
as §1

In the next data set the target is WT NRAS-BRAF complex (Homo sapiens (Human), UniProt P01111+P62937). Kind of data set: WT NRAS-BRAF with CYPA interaction assay (TR-FRET). Particulars: WT NRAS. Type of data set: biochemical. The procedure:
as §1

A further data set relates to SHP-77 xenograft tumor. Kind of data set: SHP-77 SCLC xenograft efficacy study. Type of data set: in vivo. The conditions noted are these: for mean tumor growth inhibition (TGI): daily 30 mg/kg p.o., 14 days treatment, SHP-77 xenograft. The source says:
The purpose of the study was to assess the anti-tumor activity in difficult KRAS mutated xenograft tumor model using SHP-77 (small cell lung cancer, SCLC; ATCC CRL-2195) by examining the time-dependent effects on MAPK pathway modulation and tumor suppression post-administration of Example 24 and reference compound A122.
Female CB17-SCID mice at 6-8 weeks old from Vital River Co., LTD. were used for these studies. In order to generate subcutaneous xenograft tumors, each mouse was inoculated at the right flank with tumor cells in 100 μL of PBS and Matrigel matrix in the right hind flank with 1×10^7 cells. Mouse health was monitored daily, and caliper measurements began when tumors were palpable. Tumor volume measurements were determined utilizing the formula 0.5×L×W^2 in which L refers to length and W refers to width of each tumor. When tumors reached an average tumor volume of approximately 100-200 mm^3 for efficacy study and 300-500 mm^3 for single-dose PK/PD study, mice were randomized into treatment groups.
Mice were treated by oral gavage at 10 mg/kg with either vehicle consisting of DMSO: Solutol HS15: water=10:10:80 (% v/v/v) or compounds (Example 24, A122) in vehicle at indicated doses. For efficacy studies, animals were orally administered daily, tumor volumes and body weights were measured 3 times per week. Study day on efficacy plots indicates the day after which compound treatment was initiated. For single-dose PK/PD study, at the indicated time points after a single dose of Example 24 at the indicated dose levels, tumor samples were collected for PD analysis. RNA extraction and analysis of DUSP6 levels by in tumor tissue were performed as described in Example 134.

In a further data set the target is hERG potassium channel (Homo sapiens (Human), UniProt Q12809). Briefly: hERG potassium channel assay (manual patch clamp, CHO cells). Type of data set: cell-based. Particulars: for IC50 / IC20: 34° C., manual patch, CHO cells; for IC20: human, CHO cells stably transfected with hERG channel. As for the experimental part: The purpose of the test was to screen compounds for the activity on hERG channels as a non-clinical cardiac safety evaluation.
Advanced hERG experiments were performed at near-physiological temperature (34° C.) by HEKA EPC10 manual patch system (heka elektronik, EPC10 amplifier). The CHO cells (B′SYS GmbH) stably transfected hERG channel were initially held at −80 mV, depolarized to voltages between −40 mV (100 ms) to 20 mV (500 ms) to activate the hERG outward currents, and then repolarized to −40 mV (500 ms) to record the hERG tail currents, with an interpulse interval of 15s. The recording environment included: Extracellular solution (in mM): 150 NaCl, 4 KCl, 1.2 CaCl2), 1 MgCl2 and 10 HEPES; pH adjusted to 7.2-7.4 with 5 M NaOH; Intracellular solution (in mM): 125 KCl, 10 NaCl, 5 EGTA, 10 HEPES, 0.1 Na2GTP and 5 MgATP; pH adjusted to 7.2 with 1 M KOH. Current inhibitions in the presence of more than 4 concentrations in quadruplicate were used to fit hERG IC50 by Graphpad prism V8.0.

The nature of data set [1]: Single dose pharmacokinetics (PK) study in female BALB/c mice. Type of data set: in vivo, mouse. As for the experimental part:
The purpose of this study was to determine the pharmacokinetics of selected compounds following single intravenous bolus or oral gavage administration in female BALB/c mice. Briefly, two groups of female BALB/c mice (available from Shanghai Lingchang Biotechnology Co., Ltd) (N=3/group) were treated with a single dose of compound intravenously at 3 mg/kg (IV) or orally at 30 mg/kg (PO). Blood samples were collected at 5 min (only for IV), […], 30 min, 1 h, 2 h, 4 h, 7 h and 24 h post-dose. Blood samples were placed on ice until centrifugation to obtain plasma samples. The concentration of compound in plasma samples was determined using LC-MS/MS method. The pharmacokinetic parameters were calculated by non-compartmental analysis.

[2] abbreviates: 30 mg/kg, po, female BALB/c mice.

Like-named read-outs stand apart in the source and are kept apart here.

hERG potassium channel, sequence (Q12809 whole entry): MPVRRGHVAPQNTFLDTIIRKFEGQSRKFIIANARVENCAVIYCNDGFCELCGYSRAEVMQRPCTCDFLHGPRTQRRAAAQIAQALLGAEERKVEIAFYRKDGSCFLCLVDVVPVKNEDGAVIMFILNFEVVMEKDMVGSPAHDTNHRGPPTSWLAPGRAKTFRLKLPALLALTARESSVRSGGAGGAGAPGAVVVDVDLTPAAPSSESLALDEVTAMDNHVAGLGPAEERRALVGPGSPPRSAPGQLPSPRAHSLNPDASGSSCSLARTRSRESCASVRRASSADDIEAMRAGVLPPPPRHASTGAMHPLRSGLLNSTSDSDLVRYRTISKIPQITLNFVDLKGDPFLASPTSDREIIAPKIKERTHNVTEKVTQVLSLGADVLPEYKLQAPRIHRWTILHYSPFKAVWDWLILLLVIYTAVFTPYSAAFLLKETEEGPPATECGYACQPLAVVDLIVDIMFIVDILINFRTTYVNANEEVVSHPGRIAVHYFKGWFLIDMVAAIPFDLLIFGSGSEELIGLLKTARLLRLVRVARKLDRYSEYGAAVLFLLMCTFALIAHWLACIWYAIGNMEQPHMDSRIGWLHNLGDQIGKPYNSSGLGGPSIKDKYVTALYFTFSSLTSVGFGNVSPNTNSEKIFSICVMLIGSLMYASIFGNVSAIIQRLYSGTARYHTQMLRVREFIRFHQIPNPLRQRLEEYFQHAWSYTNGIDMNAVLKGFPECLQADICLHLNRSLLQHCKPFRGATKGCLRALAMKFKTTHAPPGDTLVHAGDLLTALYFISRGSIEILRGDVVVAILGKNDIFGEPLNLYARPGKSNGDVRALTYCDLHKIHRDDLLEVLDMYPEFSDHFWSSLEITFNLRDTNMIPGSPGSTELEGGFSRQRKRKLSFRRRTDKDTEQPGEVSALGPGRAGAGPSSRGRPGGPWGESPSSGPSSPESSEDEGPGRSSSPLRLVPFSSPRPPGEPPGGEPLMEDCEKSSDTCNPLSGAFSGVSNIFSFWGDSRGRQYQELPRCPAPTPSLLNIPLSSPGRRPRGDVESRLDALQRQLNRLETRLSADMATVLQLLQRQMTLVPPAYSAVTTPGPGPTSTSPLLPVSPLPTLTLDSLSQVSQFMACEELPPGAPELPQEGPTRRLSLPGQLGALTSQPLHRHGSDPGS
WT HRAS-BRAF complex, sequence (P01112 whole entry, looked up): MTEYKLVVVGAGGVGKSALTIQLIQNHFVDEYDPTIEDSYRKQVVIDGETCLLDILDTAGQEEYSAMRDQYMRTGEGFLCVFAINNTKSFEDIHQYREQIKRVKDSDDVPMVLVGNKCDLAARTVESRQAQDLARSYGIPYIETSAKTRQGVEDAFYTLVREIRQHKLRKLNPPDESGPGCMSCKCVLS
WT HRAS-BRAF complex, sequence (P62937 whole entry, looked up): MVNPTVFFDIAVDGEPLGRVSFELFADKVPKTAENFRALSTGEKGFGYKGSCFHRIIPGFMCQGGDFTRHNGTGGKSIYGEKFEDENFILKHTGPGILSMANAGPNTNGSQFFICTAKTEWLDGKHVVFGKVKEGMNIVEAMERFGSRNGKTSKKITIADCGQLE
WT NRAS-BRAF complex, sequence (P01111 whole entry, looked up): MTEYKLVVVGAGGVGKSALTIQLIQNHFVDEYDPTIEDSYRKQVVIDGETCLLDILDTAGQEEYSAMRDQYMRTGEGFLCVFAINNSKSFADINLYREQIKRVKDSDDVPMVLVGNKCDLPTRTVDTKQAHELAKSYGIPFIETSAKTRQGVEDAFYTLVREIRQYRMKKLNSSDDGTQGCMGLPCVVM
WT NRAS-BRAF complex, sequence (P62937 whole entry, looked up): as the sequence (P62937 whole entry, looked up) above
WT KRAS-BRAF complex, sequence (P01116-2 whole entry, looked up): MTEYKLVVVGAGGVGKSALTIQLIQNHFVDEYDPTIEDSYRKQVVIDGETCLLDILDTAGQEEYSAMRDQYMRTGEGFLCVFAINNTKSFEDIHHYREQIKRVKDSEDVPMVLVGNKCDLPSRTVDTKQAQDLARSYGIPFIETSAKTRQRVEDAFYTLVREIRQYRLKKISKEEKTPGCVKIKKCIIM
WT KRAS-BRAF complex, sequence (P62937 whole entry, looked up): as the sequence (P62937 whole entry, looked up) above

In the case of `CO[C@@H](C)c1ncc(N2CCN(C)CC2)cc1-c1c2c3cc(cc4c3n1CCC4)-c1csc(n1)C[C@H](NC(=O)[C@H]1[C@H](C)[C@@H]1C)C(=O)N1CCC[C@H](N1)C(=O)OCC(C)(C)C2` (atropisomer, axis not shown; (M)) [Example 24, (1r,2R,3S)-N-[(7S,13S)-(20M)-20-[2-[(1S)-1-methoxyethyl]-5-(4-methylpiperazin-1-yl)-3-pyridyl]-17,17-dimethyl-8,14-dioxo-15-oxa-4-thia-9,21,30,31-tetrazahexacyclo[23.3.1.1^2,5.1^9,13.0^19,27.0^21,26]hentriaconta-1 (28),2,5 (31), 19,25 (29),26-hexaen-7-yl]-2,3-dimethyl-cyclopropanecarboxamide], the IC50 against WT HRAS-BRAF complex was 38 nM. For the same molecule, the IC50 against WT KRAS-BRAF complex amounted to 32 nM. For the same molecule, at WT NRAS-BRAF complex, 35 nM corresponded to half-maximal inhibition (IC50). For the same molecule, the “mean tumor growth inhibition (TGI)” value with SHP-77 xenograft tumor is given as 70%. The “tolerability based on body weights” value in the data set with SHP-77 xenograft tumor (daily administration at 30 mg/kg, SHP-77 xenograft mice) was “well-tolerated”. In addition, on hERG potassium channel, the “fold higher hERG IC20 compared to A122” value amounted to 3 fold, the “fold higher hERG IC20 compared to A252” value was found to be 4 fold, the IC50 was found to be 63700 nM and the IC20 worked out at 13800 nM. In data set [1] (3 mg/kg, iv, female BALB/c mice), this molecule showed a CL of 5.3 mL/min/kg. In data set [1] (setting [2]), this molecule gave an AUC0-last of 57240 ng·h/mL and a peak concentration (Cmax) of 10498 ng/mL. In addition, in data set [1] (30 mg/kg, po, mouse), the “fold increase in AUC0-last compared with compound A122” value is listed as 6 fold, the “fold increase in AUC0-last compared with compound A252” value worked out at 4 fold, the “fold increase in Cmax compared with compound A122” value is about 4 fold and the “fold increase in Cmax compared with compound A252” value came out at 4.3 fold.

For the molecule `CCn1c(-c2cc(N3CCN(C)CC3)cnc2[C@H](C)OC)c2c3cc(ccc31)-c1csc(n1)C[C@H](NC(=O)[C@H]1C[C@@H]1C)C(=O)N1CCC[C@H](N1)C(=O)OCC(C)(C)O2` [Example A122, reference compound], the IC50 at WT HRAS-BRAF complex worked out at 10 nM; against WT KRAS-BRAF complex, 16 nM; against WT NRAS-BRAF complex, 10 nM; against hERG potassium channel, 16900 nM. The “mean tumor growth inhibition (TGI)” value in the data set with SHP-77 xenograft tumor amounted to 43%. In addition, the IC20 against hERG potassium channel stood at 4600 nM. This molecule came in with a clearance in data set [1] (female, BALB/c, mouse, plasma, iv, 3 mg/kg, female BALB/c mice) of 33.9 mL/min/kg. The same molecule showed an AUC(0-t) in data set [1] (female, BALB/c, mouse, plasma, po, 30 mg/kg, female BALB/c mice) of 9760 ng·h/mL. Moreover, in data set [1] (female, BALB/c, mouse, plasma, po, 30 mg/kg, po, female BALB/c mice, read-out: Cmax), the Cmax was found to be 2530 ng/mL.
